In data set [1] the test system is Ba/F3 BCR-ABL1-E255K. The experiment in a line: Inhibition of proliferation of BaF3 cells overexpressing BCR-ABL1 mutations (CellTiter-Glo). In kind it is cell-based, Mouse. The following applies: 72 h. The text has this:
(§1) The test objective was to evaluate the inhibitory activity of the compounds of the present invention against proliferation of the Ba/F3 BCR-ABL1-T315I, Ba/F3 BCR-ABL1-E255K, Ba/F3 BCR-ABL1-E255V, and Ba/F3 BCR-ABL1-G250E mutation models of mouse primary B cells cultured in vitro.
(§2) CellTiter-Glo® Luminescent Cell Viability Assay was used to detect the inhibitory effect of drugs on tumor cell proliferation and growth. The logarithmic growth phase cells cultured overnight were directly taken, pipetted up and down, mixed and counted, the cell density was adjusted according to different cell density requirements, and the cells were prepared into a cell suspension and plated on a 96-well plate. Drugs at different concentrations were added, 3 replicate wells were set for each concentration, and corresponding vehicle controls were set. The maximum test concentration in Ba/F3 BCR-ABL1-T315I and Ba/F3 BCR-ABL1-E255K cells was 10000 nM, with 3.16-fold gradient dilution and a total of 9 concentrations (10000-1.0058 nM). The maximum concentration of the compounds detected in other cells was 500 nM, with 3.16-fold gradient dilution, and a total of 9 concentrations (500-0.0503 nM). The cells with the compound being added were cultured for another 72 h at 37°C and 5% CO2. The culture plate and its contents were equilibrated to room temperature, the CellTiter-Glo® reagent was added, the contents were mixed on a shaker for 5 min to induce cell lysis, the culture plate was further incubated at room temperature in the dark for 20 min, and the luminescence was read with a microplate reader.
Background: ATP-based viability assays read luminescence as a measure of living cells.

Data set [2] has as its system Ba/F3 BCR-ABL1-E255V. Described as above. Format: cell-based, Mouse. The following applies: 72 h.
Text: as §1, §2

The test system of data set [3] is Ba/F3 BCR-ABL1-G250E. The description is as above. Format: cell-based, Mouse. The following applies: 72 h.
Text: as §1, §2

Data set [4] concerns Ba/F3 BCR-ABL1-T315I. The data set is described as above. In kind it is cell-based, Mouse. The following applies: 72 h.
Text: as §1, §2

The target of data set [5] is ABL1 WT kinase (Homo sapiens, UniProt P00519). The experiment in a line: In vitro inhibitory activity against ABL1 WT kinase (capillary electrophoresis, substrate peptide phosphorylation). In kind it is biochemical. The following applies: Maximum concentration 1 µM. The protocol:
Capillary electrophoresis was used to detect the phosphorylation conversion rate of the substrate peptide to determine the IC50 value of the test compound for inhibiting the kinase (ABL1-WT). The maximum concentration of the compound tested in the test was 1000 nM, with 3-fold dilution, and a total of 12 concentrations (1000 - 0.0056 nM). First, an enzyme reaction system (the concentration of enzyme ABL1-WT was 1.3 nM, the concentration of substrate FLPeptide2 was 1.5 µM, and the reaction factor was 10 mM MgCl2) was prepared. After incubation at room temperature for 30 min, 5 µL of 4×ATP solution was added to start the enzyme reaction. After reacting at room temperature for 90 min, the reaction was stopped by adding a stop buffer (containing 0.5 M EDTA). The sample was analyzed using an EZ reader (analysis conditions: pressure -1.5PSI, upper voltage current -2250V, lower voltage current -500V, separation time 40 sec, system delay 100.0 sec).
From the conversion rate read by EZ Reader, the remaining activity was calculated according to the following formula. Remaining Activity (%) = 100% × (CRSample −CRLC)/(CRHC −CRLC) [formula]
IC50 was calculated using XLfit, and IC50 was calculated by Formula 201 as the fitting formula.

Data set [6] concerns human chronic granulocytic leukemia cells KCL22-r. Description: Inhibition of proliferation of tumor cell strains carrying BCR-ABL1 fusion mutations (CellTiter-Glo). Format: cell-based. The following applies: KCL22-r (imatinib-resistant strain), 72 h. The text has this: (§3) The test objective was to evaluate the inhibitory activity of the compounds of the present invention against proliferation of human erythroleukemia cells K562, human peripheral blood basophilic leukemia cells Ku812, and human chronic granulocytic leukemia cells KCL22-s and KCL22-r cultured in vitro.
(§4) CellTiter-Glo® Luminescent Cell Viability Assay was used to detect the inhibitory effect of drugs on tumor cell proliferation and growth. The logarithmic growth phase cells cultured overnight were directly taken, pipetted up and down, mixed and counted, the cell density was adjusted according to different cell density requirements, and the cells were prepared into a cell suspension and plated on a 96-well plate. Drugs at different concentrations were added, three replicate wells were set for each concentration, and corresponding solvent controls were set. The maximum concentration of compound detected was 500 nM, with 3-fold gradient dilution, and a total of 9 concentrations (500-0.076 nM). The cells with the compound being added were cultured for another 72 h at 37°C and 5% CO2. The culture plate and its contents were equilibrated to room temperature, the CellTiter-Glo® reagent was added, the contents was mixed on a shaker for 3 min to induce cell lysis, the culture plate was further incubated at room temperature in the dark for 10 min, and the chemiluminescence signal value was determined by a microplate reader (BioTek SynergyH1).

Data set [7] has as its system human chronic granulocytic leukemia cells KCL22-s. Described as above. The following applies: KCL22-s (imatinib-sensitive strain), 72 h. Format: cell-based.
Text: as §3, §4

In data set [8] the test system is human peripheral blood basophilic leukemia cells Ku812. Described as above. In kind it is cell-based. The following applies: 72 h.
Text: as §3, §4

Data set [9] deals with human erythroleukemia cells K562. Described as above. In kind it is cell-based. The following applies: 72 h.
Text: as §3, §4

The subject of data set [10] is human chronic myeloid leukemia cell strain KCL22-s. The experiment in a line: Efficacy on subcutaneous xenograft tumor model of KCL22-s. The following applies: oral, dosing cycle 15 days.
The nature of data set [11]: Pharmacokinetic study in dogs. In kind it is in vivo, beagle dogs. The method, then: The crystal form A of the p-tosylate of the compound was fully suspended in an aqueous solution of 0.5% HPMC (hydroxypropylmethyl cellulose) K4M, and then administered to beagle dogs by gavage at a dosage of 20 mg/kg and a dose volume of 5 mL/kg, with three dogs in each parallel experiment. The amount of the compound was fully converted into the amount of an equivalent free base.

The nature of data set [12]: Pharmacokinetic study in rats. Format: in vivo. The following applies: for AUC(0-inf) / Cmax / MRT / Tmax / half-life: in vivo, suspension in 0.5% HPMC K4M. The protocol: The crystal form A of the p-tosylate of the compound was fully suspended in an aqueous solution of 0.5% HPMC (hydroxypropylmethyl cellulose) K4M, and then administered to rats by gavage at a dosage of 10 mg/kg and 30 mg/kg, with three rats in each parallel experiment. The amount of the compound was fully converted into the amount of an equivalent free base.

Data set [13] can be described thus: Thermodynamical stability experiment (polymorph screening by slurrying, XRPD). The following applies: comparison of DSC patterns of crystal forms A-E. In kind it is physicochemical.
Experiment in data set [14]: as above
Format: physicochemical. The protocol:
An organic solvent with certain solubility was selected, and the crystal form A of the p-tosylate of the compound was suspended in the solvent system. The resulting system was slurried by stirring at room temperature for 2 weeks, and centrifuged. The supernatant was discarded. After the solid was dried under vacuum at 50°C (-0.1 MPa) for 16 h, the XRPD pattern of the solid was measured and compared with the XRPD of the salt of the starting compound.

Data set [15] in a line: Dynamic vapor sorption experiment. In kind it is physicochemical. The method, then:
The crystal form A of the p-tosylate of the compound was placed in saturated water vapor with different relative humidities to reach a dynamic equilibrium between the compound and the water vapor, and the percentage of hygroscopic weight gain of the compound after reaching the equilibrium was calculated.

Setting [16] is: dog, in vivo, po, beagle dogs, gavage 20 mg/kg, suspension in 0.5% HPMC K4M.

Chain of ABL1 WT kinase (P00519 whole entry): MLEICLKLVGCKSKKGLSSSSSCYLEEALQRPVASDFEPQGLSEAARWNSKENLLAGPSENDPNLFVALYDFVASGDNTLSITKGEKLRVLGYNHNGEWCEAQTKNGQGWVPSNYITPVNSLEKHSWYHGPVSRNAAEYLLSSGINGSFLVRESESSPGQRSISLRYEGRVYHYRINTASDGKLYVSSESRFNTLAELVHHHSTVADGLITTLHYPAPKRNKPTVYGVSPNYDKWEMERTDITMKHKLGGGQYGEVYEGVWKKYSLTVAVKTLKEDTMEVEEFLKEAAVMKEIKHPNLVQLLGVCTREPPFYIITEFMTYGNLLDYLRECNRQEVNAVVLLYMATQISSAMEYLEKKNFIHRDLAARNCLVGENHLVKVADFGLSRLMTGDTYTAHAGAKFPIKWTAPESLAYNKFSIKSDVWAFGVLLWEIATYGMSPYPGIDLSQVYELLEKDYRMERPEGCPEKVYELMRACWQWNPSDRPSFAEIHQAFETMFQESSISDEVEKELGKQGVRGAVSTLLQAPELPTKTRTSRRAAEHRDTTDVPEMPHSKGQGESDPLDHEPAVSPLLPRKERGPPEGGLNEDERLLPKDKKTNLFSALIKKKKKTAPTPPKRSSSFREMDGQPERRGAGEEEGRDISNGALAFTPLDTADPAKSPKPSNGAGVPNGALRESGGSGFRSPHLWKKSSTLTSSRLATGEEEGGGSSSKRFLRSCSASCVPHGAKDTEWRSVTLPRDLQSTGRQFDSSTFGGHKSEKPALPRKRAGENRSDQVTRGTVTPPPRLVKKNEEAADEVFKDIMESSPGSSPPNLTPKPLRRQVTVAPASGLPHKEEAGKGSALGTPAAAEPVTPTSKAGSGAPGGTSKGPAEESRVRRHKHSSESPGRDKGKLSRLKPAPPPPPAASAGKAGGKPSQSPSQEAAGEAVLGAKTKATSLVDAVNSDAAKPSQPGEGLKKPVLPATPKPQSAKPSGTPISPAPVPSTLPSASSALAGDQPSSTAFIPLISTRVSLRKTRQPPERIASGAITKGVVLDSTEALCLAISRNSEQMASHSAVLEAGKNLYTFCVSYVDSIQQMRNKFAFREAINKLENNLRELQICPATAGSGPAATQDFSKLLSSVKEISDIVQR

With “p-tosylate of (3R)-N-(4-(chlorodifluoromethoxy)phenyl)-2-(difluoromethyl)-3-methyl-3,4,5a,6-tetrahydro-5-oxa-1,2a,6,8-tetraazabenzo[4,5]cyclooctyl[1,2,3-ed]indene-11-carboxamide [Example 1]”, the IC50 (as a rule, the concentration needed to halve the response being measured) in data set [1] is 26.3 nM; in data set [2], 7.15 nM; in data set [3] it was 5.36 nM; in data set [4] it was 46.8 nM; in data set [5], 0.43 nM; in data set [6], 14.6 nM. In addition, the half-inhibitory concentration (IC50) in [7] is 2.99 nM; in [8], 4.13 nM; in [9], 13 nM. Further, the T/C (in general, the result in the treated group divided by that in the control group, in per cent) in data set [10] (1.5 mg/kg bid) was 7.05%; in data set [10] (3 mg/kg bid), 0.69%; in data set [10] (3 mg/kg qd), 3.98%; in data set [10] (7.5 mg/kg bid), 0.52%. The TGI is on record as 98.20% in [10] (1.5 mg/kg bid), 187.08% in data set [10] (3 mg/kg bid), 127.26% in data set [10] (3 mg/kg qd) and 190.62% in data set [10] (7.5 mg/kg bid). In addition, the Tumor volume in [10] (1.5 mg/kg bid) is reported as 143±35 mm^3; in [10] (3 mg/kg bid) it was 14±5 mm^3; in [10] (3 mg/kg qd), 81±19 mm^3; in data set [10] (7.5 mg/kg bid), 11±7 mm^3.

In the case of `C[C@@H]1COC2NC=NC=C2c2cc(C(=O)Nc3ccc(OC(F)(F)Cl)cc3)cc3nc(C(F)F)n1c23` (some centres unmarked) [Crystal form A of p-tosylate], the F in data set [11] (beagle dogs, gavage 20 mg/kg, suspension in 0.5% HPMC K4M) came out at 68.6%. In data set [11] (setting [16]), the AUC(0-inf) (usually the area under the concentration-time curve extrapolated to infinity) stood at 40400 ng·h/mL, the peak level (Cmax) was 5720 ng/mL, the MRT (usually the average time that molecules of a dose stay in the body) is 5.47 h and the time to peak (Tmax) (commonly the time at which the peak concentration occurs) is 1.33 h. The half-life (as a rule, the time in which the quantity being followed falls by half) in data set [11] (setting [16]) is 5.58 h. Besides, in data set [12] (Rat PO 10 mg/kg), the AUC(0-inf) amounted to 2600 ng·h/mL, the peak level (Cmax) was 881 ng/mL, the MRT came out at 2.86 h and the Tmax worked out at 1 h. Moreover, the half-life in data set [12] (Rat PO 10 mg/kg) is 3.55 h. In data set [12] (Rat PO 30 mg/kg), the area under the curve AUC(0-inf) was 15600 ng·h/mL, the concentration peaked (Cmax) at 4510 ng/mL, the MRT is 2.97 h and the Tmax stood at 1 h. In data set [12] (Rat PO 30 mg/kg), this molecule showed a half-life of 2.71 h.

Turning to “(3R)-N-(4-(chlorodifluoromethoxy)phenyl)-2-(difluoromethyl)-3-methyl-3,4,5a,6-tetrahydro-5-oxa-1,2a,6,8-tetraazabenzo[4,5]cyclooctyl[1,2,3-cd]indene-11-carboxamide [crystal form A of the p-tosylate]”, in data set [11] (gavage, 20 mg/kg), the “pharmacokinetics in dogs (in words)” value was “good metabolic properties, exposure dosage, and significantly improved bioavailability”. Moreover, the “thermodynamic stability among crystal forms of the p-tosylate” value in data set [13] is listed as “the most thermodynamically stable crystal form among these crystal forms”. Besides, the Crystal form results in data set [14] (Initial (before slurrying)) is “Form A”; in data set [14] (slurried in 2-butanone, room temperature, 2 weeks, XRPD), “Form A”; in data set [14] (slurried in 2-methyltetrahydrofuran, room temperature, 2 weeks, XRPD) it was “Form A”; in data set [14] (slurried in 3-pentanone, room temperature, 2 weeks, XRPD), “Form A”; in data set [14] (slurried in Acetone, room temperature, 2 weeks, XRPD), “Form A”; in data set [14] (slurried in Acetonitrile, room temperature, 2 weeks, XRPD) it was “Form A”. The Crystal form results in [14] (slurried in Chloroform, room temperature, 2 weeks, XRPD) was “Form A”; in [14] (slurried in Dichloromethane, room temperature, 2 weeks, XRPD), “Form A”; in data set [14] (slurried in Ethanol, room temperature, 2 weeks, XRPD), “Form A”; in data set [14] (slurried in Ethyl acetate, room temperature, 2 weeks, XRPD) it was “Form A”; in data set [14] (slurried in Ethyl formate, room temperature, 2 weeks, XRPD), “Form A”; in [14] (slurried in Isopropanol, room temperature, 2 weeks, XRPD), “Form A”. Besides, the Crystal form results in data set [14] (slurried in Isopropyl acetate, room temperature, 2 weeks, XRPD) was “Form A”; in data set [14] (slurried in Methanol, room temperature, 2 weeks, XRPD) it was “Form A”; in data set [14] (slurried in Tetrahydrofuran, room temperature, 2 weeks, XRPD), “Form A”; in data set [14] (slurried in Toluene, room temperature, 2 weeks, XRPD), “Form A”; in data set [14] (slurried in n-heptane, room temperature, 2 weeks, XRPD), “Form A”. Also, in [15] (2 cycles at relative humidity of 0-95%), the “crystal form (XRPD pattern) after hygroscopic-dehygroscopic cycles” value is recorded as “remained unchanged”. Moreover, the hygroscopic weight gain in data set [15] (at RH 80%) is recorded as 0.3545%. Besides, the “stability in a humid environment” value in [15] (conclusion in words) is given as “stable in a humid environment”. Besides, the “pharmacokinetics in rats (in words)” value in data set [12] (gavage, dose of 30 mg/kg) is listed as “good metabolic properties”.

With `Cc1ccc(NC(=O)c2ccc(CN3CCN(C)CC3)cc2)cc1Nc1nccc(-c2cccnc2)n1` [Imatinib], in [10] (75 mg/kg qd), the T/C worked out at 46.92% and the TGI is given as 56.03%.

Values taken from patent EP4692095A1, “SALT CRYSTAL FORM OF QUATERNARY FUSED RING COMPOUND, AND PREPARATION METHOD THEREFOR AND USE THEREOF” (Jiangsu Hansoh Pharmaceutical Group Co., Ltd., priority 2023, dated 2024).
